Assay [1] deals with T1, AxDTA; D-threonine aldolase from Alcaligenes xylosoxidans (Achromobacter xylosoxidans, UniProt A0A0J9X243).
T1 construct: full-length, residues 1-379, cloned from genomic DNA into pET101/D-TOPO with native TGA stop (degenerate reverse primer), no tag; E. coli BL21 Star (DE3); treated by reductive lysine methylation before crystallisation (no methylation seen in density); residues 1-6 (A) and 1-7 (B) disordered; dimer in crystal
T1 sequence (A0A0J9X243 1-379): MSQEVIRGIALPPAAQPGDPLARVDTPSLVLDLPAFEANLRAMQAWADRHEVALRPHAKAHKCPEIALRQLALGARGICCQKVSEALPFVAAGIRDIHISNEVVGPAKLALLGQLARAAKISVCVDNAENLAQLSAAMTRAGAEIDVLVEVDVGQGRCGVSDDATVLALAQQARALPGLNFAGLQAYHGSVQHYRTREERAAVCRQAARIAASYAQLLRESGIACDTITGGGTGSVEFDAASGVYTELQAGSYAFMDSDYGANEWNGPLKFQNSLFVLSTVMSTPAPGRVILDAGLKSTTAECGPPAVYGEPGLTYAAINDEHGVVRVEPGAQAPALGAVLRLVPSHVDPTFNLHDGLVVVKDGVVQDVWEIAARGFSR
Briefly: X-ray crystallography, […] Å. In kind it is binding. The conditions noted are these: active site; two alternate conformations: covalent (internal aldimine with Lys59, ~40% occupancy) and non-covalent (~60%); Mn2+ nearby; crystals at pH 8.1.

For assay [2], the target named is D-threonine aldolase from Alcaligenes xylosoxidans (Alcaligenes xylosoxidans IFO 12669). Briefly: crystal structure; X-ray, 1.5 Å, space group P2(1), two molecules per asymmetric unit; crystals from 200 mM sodium chloride, 100 mM Tris/HCl pH 8.1, 13% (w/v) PEG-3350.

As a reminder, the stoichiometry N is the number of molecules, sites or subunits per partner or assembly.

For the compound `Cc1ncc(COP(=O)(O)O)c(C=O)c1O` [PLP, pyridoxal phosphate], in assay [1], the “X-ray crystallography, 1.5 Å” value is given as “modeled by a molecule of pyridoxal phosphate (PLP) in two alternate conformations: covalently linked to Lys59”.
“D-threonine aldolase from Alcaligenes xylosoxidans (enzyme)”: the stoichiometry N in assay [2] is 2.

Source of the values: PMC4401734, “The Crystal Structure of D-Threonine Aldolase from Alcaligenes xylosoxidans Provides Insight into a Metal Ion Assisted PLP-Dependent Mechanism” (PLoS ONE, 2015).
